Results: patent publication USRE48267E1, “Variants of C-type natriuretic peptide” (priority 2009, dated 2020)
Where a SMILES comes first, the peptide text is derived from it. Bridges are numbered along the chain shown (N, C = ends). Where no end group is shown, it is not given here. [ ]: non-standard residue; d: D form. Cit = NC(=O)NCCC[C@H](N)C(=O)O

Key:
NPR-B = target: T1, NPR-B (Mus musculus, UniProt Q6VVW5); test: stimulation of cGMP production in NIH3T3 cells; assay type: cell-based, murine; settings: for cGMP Response rel. to 1 uM CNP22, 10 nM: NIH3T3 cells exposed to 10 nM peptide; for cGMP Response rel. to 1 uM CNP22, 10 nM / cGMP Response rel. to 1 uM CNP22, 1 uM: normalized to cell number and cGMP production in the presence of 1 uM wtCNP22; for cGMP Response rel. to 1 uM CNP22, 1 uM: NIH3T3 cells exposed to 1 uM peptide
T1 construct: Murine NIH3T3 cells express endogenously the CNP signaling receptor, NPR-B; endogenous in cells; host or cells: NIH3T3
T1 sequence (Q6VVW5 17-1047): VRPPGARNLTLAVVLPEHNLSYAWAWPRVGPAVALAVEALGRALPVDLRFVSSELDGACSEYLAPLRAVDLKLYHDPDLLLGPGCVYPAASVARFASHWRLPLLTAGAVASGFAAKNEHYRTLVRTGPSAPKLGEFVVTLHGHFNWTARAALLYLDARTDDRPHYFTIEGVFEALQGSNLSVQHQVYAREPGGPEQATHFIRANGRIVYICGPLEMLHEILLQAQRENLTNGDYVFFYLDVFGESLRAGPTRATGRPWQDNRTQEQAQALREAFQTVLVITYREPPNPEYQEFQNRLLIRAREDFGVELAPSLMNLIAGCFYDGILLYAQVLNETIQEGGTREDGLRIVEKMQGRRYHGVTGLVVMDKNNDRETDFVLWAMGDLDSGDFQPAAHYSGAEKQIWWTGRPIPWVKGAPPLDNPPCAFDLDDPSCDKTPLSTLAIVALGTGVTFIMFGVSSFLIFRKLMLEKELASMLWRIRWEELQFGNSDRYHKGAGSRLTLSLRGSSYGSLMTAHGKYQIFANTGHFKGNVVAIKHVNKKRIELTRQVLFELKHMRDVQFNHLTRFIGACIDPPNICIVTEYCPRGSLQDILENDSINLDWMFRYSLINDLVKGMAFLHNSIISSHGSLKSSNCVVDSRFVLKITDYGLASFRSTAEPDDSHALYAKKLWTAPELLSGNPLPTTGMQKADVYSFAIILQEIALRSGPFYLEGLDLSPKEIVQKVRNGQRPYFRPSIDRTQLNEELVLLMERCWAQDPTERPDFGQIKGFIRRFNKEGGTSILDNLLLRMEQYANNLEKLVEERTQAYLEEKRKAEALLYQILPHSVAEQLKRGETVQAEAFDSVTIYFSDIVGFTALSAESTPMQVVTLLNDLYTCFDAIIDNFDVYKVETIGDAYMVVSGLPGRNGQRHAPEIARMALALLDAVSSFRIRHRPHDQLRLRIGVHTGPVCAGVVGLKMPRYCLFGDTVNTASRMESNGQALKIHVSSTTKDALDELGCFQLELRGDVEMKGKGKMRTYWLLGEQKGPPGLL
Description: To determine the functional activity of CNP variants, the production of cGMP was measured in NIH3T3 cells exposed to the CNP variants. Murine NIH3T3 cells express endogenously the CNP signaling receptor, NPR-B, which shares 98% protein sequence identity with human NPR-B. NIH3T3 cells were cultured in high glucose Dulbecco's Modified Eagle Medium supplemented with 10% fetal calf serum and antibiotics at 37° C. with 5% CO2). Twenty four to 48 hours prior to signaling, cells were passaged to 12-well plates with a density of 2-5×10^5 cells per well at the time of the assay. CNP variants were resuspended in 1 mM HCl to a stock concentration of 1 mg/mL (455 uM for wtCNP22) and subsequently diluted to a 30 uM working stock solution with phosphate-buffered saline (PBS). Ten-fold serial dilutions were prepared in phosphate-buffered saline. Culture medium was removed from the cells and replaced with 0.4 mL PBS/Dulbecco's modified Eagle medium (50/50, v/v) containing 0.75 mM isobutylmethylxanine. Plates were incubated at 37° C., 5% CO2 for 15 minutes before addition of 0.2 mL CNP variant in PBS and continued incubation at 37° C. for 15 minutes. Reactions were stopped by the addition of 0.2 mL lysis buffer supplied with the CatchPoint cGMP assay kit (Molecular Devices), and cGMP production was determined with the CatchPoint cGMP Assay (Molecular Devices). All stimulation experiments were performed in duplicate.
Tables 1-4 summarize the ability of CNP variants having backbone or side chain modifications, amino acid substitutions, N-terminal amino acid extensions, and/or N-terminal PEGylation, respectively, to stimulate cGMP production in NIH3T3 cells. In all four tables, the values for cGMP production in NIH3T3 cells exposed to 10 nM or 1 uM CNP variant are normalized to cell number and cGMP production in the presence of 1 uM wtCNP22.

Recombinant human NEP = Recombinant human NEP (Homo sapiens, UniProt P08473); test: in vitro NEP cleavage assay (disappearance of non-cleaved CNP variant)
Chain of Recombinant human NEP (P08473 whole entry): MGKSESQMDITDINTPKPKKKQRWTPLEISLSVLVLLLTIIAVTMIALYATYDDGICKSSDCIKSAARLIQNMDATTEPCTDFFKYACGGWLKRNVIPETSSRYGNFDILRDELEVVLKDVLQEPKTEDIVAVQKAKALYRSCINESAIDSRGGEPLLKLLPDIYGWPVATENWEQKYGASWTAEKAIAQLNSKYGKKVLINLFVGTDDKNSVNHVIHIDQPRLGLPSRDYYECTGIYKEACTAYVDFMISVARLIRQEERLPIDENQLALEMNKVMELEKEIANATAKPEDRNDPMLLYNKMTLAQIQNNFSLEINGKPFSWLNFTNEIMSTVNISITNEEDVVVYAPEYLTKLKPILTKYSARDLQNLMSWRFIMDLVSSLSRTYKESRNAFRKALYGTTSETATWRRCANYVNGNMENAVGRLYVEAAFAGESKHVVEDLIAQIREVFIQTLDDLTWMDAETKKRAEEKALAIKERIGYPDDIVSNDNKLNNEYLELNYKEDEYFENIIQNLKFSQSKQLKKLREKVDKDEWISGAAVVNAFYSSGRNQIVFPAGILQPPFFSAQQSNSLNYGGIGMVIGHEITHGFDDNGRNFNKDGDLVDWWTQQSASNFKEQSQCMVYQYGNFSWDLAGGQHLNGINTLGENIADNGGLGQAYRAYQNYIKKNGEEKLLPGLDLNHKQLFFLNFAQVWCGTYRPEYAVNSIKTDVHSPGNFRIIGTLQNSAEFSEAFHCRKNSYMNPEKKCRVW
Description: To determine the effects of amino acid substitutions, amino acid extensions, backbone modifications, side chain modifications and PEGylation on the susceptibility of CNP variants to neutral endopeptidase (NEP) cleavage, peptide cleavage assays were carried out using an in vitro assay that monitored disappearance of the non-cleaved CNP variant.
Recombinant human NEP (1 ug/mL final concentration) was added to 100 uM CNP variant diluted in 0.1 M Tris, pH 7. The reaction mixture was incubated at 37° C. for various periods of time, and the reaction was quenched with EDTA (10 mM final) followed by heat denaturation. The reaction mixture was reduced and then the reaction products were analyzed using HPLC and mass spectroscopy. The half-life of the CNP variant was calculated based on the disappearance of intact CNP variant over time.

Compound | cGMP Response rel. to 1 uM CNP22, 10 nM (NPR-B) | cGMP Response rel. to 1 uM CNP22, 1 uM (NPR-B) | resistance to NEP cleavage (in words) (Recombinant human NEP) | other results
CC[C@H](C)[C@@H]1NC(=O)[C@H](CCCNC(=N)N)NC(=O)[C@H](CC(=O)O)NC(=O)[C@H](CC(C)C)NC(=O)[C@H](CCCCN)NC(=O)[C@H](CC(C)C)NC(=O)CNC(=O)[C@H](Cc2ccccc2)NC(=O)[C@@H](NC(=O)CNC(=O)[C@H](CCCCN)NC(=O)[C@H](CO)NC(=O)[C@H](CC(C)C)NC(=O)CNC(=O)[C@H](CCC(N)=O)NC(=O)[C@H](CCC(N)=O)NC(=O)[C@H](CC(N)=O)NC(=O)[C@H](C)NC(=O)CNC(=O)[C@H](Cc2c[nH]cn2)NC(=O)[C@@H](NC(=O)[C@H](CC(=O)O)NC(=O)[C@H](Cc2c[nH]cn2)NC(=O)[C@H](CCC(=O)O)NC(=O)[C@H](Cc2c[nH]cn2)NC(=O)[C@@H]2CCCN2C(=O)[C@H](Cc2c[nH]cn2)NC(=O)[C@H](Cc2c[nH]cn2)NC(=O)[C@H](C)NC(=O)CN)[C@@H](C)O)CSSC[C@@H](C(=O)O)NC(=O)CNC(=O)[C@H](CC(C)C)NC(=O)CNC(=O)[C@H](CO)NC(=O)[C@H](CCSC)NC(=O)[C@H](CO)NC(=O)CNC1=O [Analog CR] (H-GAHHPHEHDTHGANQQGLSKGCFGLKLDRIGSMSGLGC-OH; disulfide 22-38; N-terminus and C-terminus assumed) | 14 ± 5 | 77 ± 12 | – | –
CC[C@H](C)[C@@H]1NC(=O)[C@H](CCCNC(=N)N)NC(=O)[C@H](CC(=O)O)NC(=O)[C@H](CC(C)C)NC(=O)[C@H](CCCCN)NC(=O)[C@H](CC(C)C)NC(=O)CNC(=O)[C@H](Cc2ccccc2)NC(=O)[C@@H](NC(=O)CNC(=O)[C@H](CCCNC(=N)N)NC(=O)[C@H](CO)NC(=O)[C@H](CC(C)C)NC(=O)CN)CSSC[C@@H](C(=O)O)NC(=O)CNC(=O)[C@H](CC(C)C)NC(=O)CNC(=O)[C@H](CO)NC(=O)[C@H](C(C)C)NC(=O)[C@H](CO)NC(=O)CNC1=O [Analog AG, CNP22, K4R, M17V] (H-GLSRGCFGLKLDRIGSVSGLGC-OH; disulfide 6-22) | 10 | 65 | – | –
CC[C@H](C)[C@@H]1NC(=O)[C@H](CCCNC(=N)N)NC(=O)[C@H](CC(=O)O)NC(=O)[C@H](CC(C)C)NC(=O)[C@H](CCCCN)NC(=O)[C@H](CC(C)C)NC(=O)CNC(=O)[C@H](Cc2ccccc2)NC(=O)[C@@H](NC(=O)CNC(=O)[C@H](CCCNC(=N)N)NC(=O)[C@H](CO)NC(=O)[C@H](CC(C)C)NC(=O)CN)CSSC[C@@H](C(=O)O)NC(=O)CNC(=O)[C@H](CC(C)C)NC(=O)CNC(=O)[C@H](CO)NC(=O)[C@H](CCSC)NC(=O)[C@H](CO)NC(=O)[C@H](CCCNC(=N)N)NC1=O [Analog AE, CNP22, K4R, G15R] (H-GLSRGCFGLKLDRIRSMSGLGC-OH; disulfide 6-22) | 0.3 | 0.3 | – | –
CC[C@H](C)[C@@H]1NC(=O)[C@H](CCCNC(=N)N)NC(=O)[C@H](CC(=O)O)NC(=O)[C@H](CC(C)C)NC(=O)[C@H](CCCCN)NC(=O)[C@H](CC(C)C)NC(=O)CNC(=O)[C@H](Cc2ccccc2)NC(=O)[C@@H](NC(=O)CNC(=O)[C@H](CCCNC(=N)N)NC(=O)[C@H](CO)NC(=O)[C@H](CC(C)C)NC(=O)CN)CSSC[C@@H](C(=O)O)NC(=O)CNC(=O)[C@H](CC(C)C)NC(=O)CNC(=O)[C@H](CO)NC(=O)[C@H](CCSC)NC(=O)[C@H](CO)NC(=O)[C@H](CCCNC(N)=O)NC1=O [Analog AF, CNP22, K4R, G15Cit] (H-GLSRGCFGLKLDRI[Cit]SMSGLGC-OH; disulfide 6-22) | 1.4 | 2 | – | –
SPKMVQGSG-CNP17-KVLRRH (SPKMVQGSGCFGLKLDRIGSMSGLGCKVLRRH; disulfide 10-26 (inferred); ends not checked) [Analog CD] | – | – | – | NPR-B stimulation activity / cGMP production compared with wtCNP22 (in words) (NPR-B; NIH3T3 cells): comparable NPR-B stimulation activity as wtCNP22
PEG5K-CNP22: CNP22 conjugated at the N-terminus to polydispersed PEG5K | – | – | resistant to NEP degradation over the assay period of 160 minutes | NEP Cleavage (t1/2, min) (Recombinant human NEP; pH 7): >>160 min
CC[C@H](C)[C@@H]1NC(=O)[C@H](CCCNC(=N)N)NC(=O)[C@H](CC(=O)O)NC(=O)[C@H](CC(C)C)NC(=O)[C@H](CCCCN)NC(=O)[C@H](CC(C)C)NC(=O)CNC(=O)[C@H](Cc2ccccc2)NC(=O)[C@@H](NC(=O)CNC(=O)[C@H](CCCCN)NC(=O)[C@H](CO)NC(=O)[C@H](CC(C)C)NC(=O)CNC(=O)[C@H](CCC(N)=O)NC(=O)[C@H](CCC(N)=O)NC(=O)[C@H](CC(N)=O)NC(=O)[C@H](C)NC(=O)CNC(=O)[C@H](Cc2c[nH]cn2)NC(=O)[C@@H]2CCCN2C(=O)[C@H](Cc2c[nH]cn2)NC(=O)[C@H](CCC(N)=O)NC(=O)[C@H](CCC(=O)O)NC(=O)[C@H](Cc2c[nH]cn2)NC(=O)[C@H](CO)NC(=O)[C@H](Cc2c[nH]cn2)NC(=O)[C@H](Cc2c[nH]cn2)NC(=O)CN)CSSC[C@@H](C(=O)O)NC(=O)CNC(=O)[C@H](CC(C)C)NC(=O)CNC(=O)[C@H](CO)NC(=O)[C@H](CCSC)NC(=O)[C@H](CO)NC(=O)CNC1=O [Analog CQ] (H-GHHSHEQHPHGANQQGLSKGCFGLKLDRIGSMSGLGC-OH; disulfide 21-37; N-terminus and C-terminus assumed) | 16 | 95 | – | –
CC[C@H](C)[C@@H]1NC(=O)[C@H](CCCNC(=N)N)NC(=O)[C@H](CC(=O)O)NC(=O)[C@H](CC(C)C)NC(=O)[C@H](CCCCN)NC(=O)[C@H](CC(C)C)NC(=O)CNC(=O)[C@H](Cc2ccccc2)NC(=O)[C@@H](NC(=O)CNC(=O)[C@H](CCCNC(=N)N)NC(=O)[C@H](CO)NC(=O)[C@H](CC(C)C)NC(=O)CNC(=O)[C@@H](N)CCCNC(=N)N)CSSC[C@@H](C(=O)O)NC(=O)CNC(=O)[C@H](CC(C)C)NC(=O)CNC(=O)[C@H](CO)NC(=O)[C@H](CCSC)NC(=O)[C@H](CO)NC(=O)CNC1=O [Analog AZ] (H-RGLSRGCFGLKLDRIGSMSGLGC-OH; disulfide 7-23) | – | – | most resistant to NEP degradation | –
CC[C@H](C)[C@@H]1NC(=O)[C@H](CCCNC(=N)N)NC(=O)[C@H](CC(=O)O)NC(=O)[C@H](CC(C)C)NC(=O)[C@H](CCCCN)NC(=O)[C@H](CC(C)C)NC(=O)CNC(=O)[C@H](Cc2ccccc2)NC(=O)[C@@H](NC(=O)CNC(=O)[C@H](CCCNC(=N)N)NC(=O)[C@H](CO)NC(=O)[C@H](CC(C)C)NC(=O)CNC(=O)[C@H](CCCNC(=N)N)NC(=O)[C@H](CCCNC(=N)N)NC(=O)[C@H](CC(N)=O)NC(=O)[C@H](C)NC(=O)CN)CSSC[C@@H](C(=O)O)NC(=O)CNC(=O)[C@H](CC(C)C)NC(=O)CNC(=O)[C@H](CO)NC(=O)[C@H](CCSC)NC(=O)[C@H](CO)NC(=O)CNC1=O [Analog AY] (H-GANRRGLSRGCFGLKLDRIGSMSGLGC-OH; disulfide 11-27) | – | – | same lability to NEP hydrolysis as CNP22 | –
